Results taken from ChEMBL document CHEMBL1154376, “Anomalous microbial transformations on the taxane ring of 10-DAB by a strain of the fungus Curvularia lunata: transbenzoylation, transacetylation, and opening of the oxetane ring” (J Nat Prod, 2009).

What follows are compounds tested on NCI-H460 (assay: Cytotoxicity against human H460 cells).
Type: functional, cell-based

With `CC(=O)O[C@@]12CO[C@@H]1C[C@H](O)[C@@]1(C)C(=O)[C@H](O)C3=C(C)[C@@H](O)C[C@@](O)([C@@H](OC(=O)c4ccccc4)[C@H]21)C3(C)C` as the compound, how does the IC50 read?
The IC50 was 3.1 µM.

Which IC50 does the source give for `CC(=O)O[C@@]12CO[C@@H]1C[C@@H](O)[C@@]1(C)C(=O)C(=O)C3=C(C)[C@@H](O)C[C@@](O)([C@@H](OC(=O)c4ccccc4)[C@H]21)C3(C)C` here?
The IC50 was 60 µM.

`C=C1[C@H]2C[C@@]3(OC(=O)c4ccccc4)C(=O)[C@@H]4[C@]5(OC(C)=O)CO[C@@H]5C[C@H](O)[C@@]4(C)[C@H](O)[C@@](O)(O2)[C@@H]1C3(C)C` was tested. Which IC50 did it give?
Its IC50 is 51.5 µM.

For `C=C1[C@H]2C[C@@]3(OC(=O)c4ccccc4)C(=O)[C@@H]4[C@](O)(COC(C)=O)[C@@H](O)C[C@H](O)[C@@]4(C)[C@H](O)[C@@](O)(O2)[C@@H]1C3(C)C`, which IC50 is on record?
The IC50 was 95.2 µM.
